Assay results as given in patent publication US7897567B2, “Methods of protecting against radiation damage using alpha thymosin” (SciClone Pharmaceuticals, Inc., priority 2002, dated 2011).
Ends that are not written are not given here.

How the values were obtained:
[1] = test system: clonogenic cells of the small intestine (crypts); assay: Small intestine crypt survival after 13Gy X-irradiation in BDF1 mice; assay type: in vivo
Text: Radiation exposure may damage or kill cells. Therefore, stem and clonogenic cells of the small intestine were exposed to radiation, treated and monitored to observe the effectiveness of the treatment. There are thought to be between four and sixteen actual stem cells in each crypt of the small intestine. There are also a further reserve of clonogneic cells which are capable of regenerating the crypt when all the actual stem cells have been killed. The survival of these clonogenic cells is therefore key to the survival of the crypt and the restoration of an intact epithelial lining following cytotoxic injury (only one clonogenic cell need survive to ensure the survival of the crypt, and therefore maintenance of an intact epithelium). Growth factors and related molecules can be used to manipulate the sensitivity of these cells to cytotoxic agents, and thereby reduce the severity of gastrointestinal and oral mucositis. Factors given prior to a cytotoxic insult may increase clonogenic cell number (thereby increasing the probability of clonogen survival) or act to arrest the cell cycle in such cells (thereby making them more resistant to damage or death). […] A combination of both protocols could give maximum protection to the epithelium.
36 adult male BDF1 mice (aged 10-12 weeks) were used. The animals were divided into 6 groups and were treated as follows: (1) Control mice, (2) Irradiated, untreated mice, (3) Mice receiving 3 mg/kg thymosin ip 3 hrs prior to irradiation, (4) Mice receiving vehicle ip 3 hrs prior to irradiation, (5) Mice receiving 3 mg/kg thymosin ip 3 times daily for 3 days prior to irradiation, (6) Mice receiving vehicle ip 3 times daily for 3 days prior to irradiation.
The injections were given at 9:00 (3 times treatment) or 12:00 (1 time treatment). At 3:00 on day 3, intestinal damage was induced using a single dose of 13Gy (Gray) X-irradiation.
4 days after irradiation the animals were culled. The small intestine was removed and fixed in Carnoy's fixative prior to processing for histological analysis. 3 um sections were cut and stained with haematoxylin and eosin. Surviving crypts with one or more clonogenic cells are clearly visible in the irradiated sections. […]
For each animal ten intestinal circumferences were analyzed (60 per group). […] The number of surviving crypts per circumference were scored and the average per group determined. Only crypts containing 10 or more strongly H&E stained cells (excluding Paneth cells) and only intact circumference not containing Peyers patches were scored (Peyers patches influence both the number of crypts in a normal circumference and the ability of a crypt to survive insult).
The average crypt width (measured at its widest point) was also measured in order to correct for scoring errors due to crypt size difference. […]

[2] = subcutaneously injected; cited from earlier work

Substance: Thymosin alpha 1 (SDAAVDTSSEITTKDLKEKKEVVEEAEN; not fully specified (N-terminus); UniProt P06454 2-29, looked up) [28-amino acid thymic peptide with immunomodulatory properties, homologous to a natural product isolated from thymosin fraction 5 of calf thymus]
- survival of treatment and adverse effects ([1]; 3 mg/kg ip, single or triple dose, BDF1 mice, 13Gy X-irradiation): no obvious adverse effects
- increase in surviving crypts ([1]; triple dose thymosin vs triple dose vehicle control): 77%
- protection factor ([1]; triple dose thymosin vs triple dose vehicle control (5.3 vs 3)): 1.77
- corrected crypt survival (corrected number of crypts/circumference) ([1]; triple dose: 3 mg/kg ip 3 times daily for 3 days prior to 13Gy X-irradiation, BDF1 mice, 4 days after irradiation): 5.3 crypts/circumference
- plasma half-life [2]: about two
